Source: patent US12310967B2, “Compositions and methods of treatment for neurological disorders comprising motor neuron diseases” (Gliapharm SA, priority 2017, dated 2025)

What was measured:
[1] = system: primary astrocytes; assay: High throughput screening (HTS) for lactate secretion: acidification of extracellular medium (SNARF5); type: cell-based, mouse; design: key to Score / HTS Score (SNARF5) / Score_SNARF: fraction of plate positive-control activity (1 = 100%); details: for Score_SNARF: primary screening confirmation (SNARF5)
Procedure: Primary cultures of cerebrocortical astrocytes were obtained from 1-2-day-old OF1 mouse pups (Charles River Laboratories). Briefly, cortices were isolated and minced in small pieces under a dissecting microscope. The cells were incubated for 30 min at 37° C. in a solution containing 20 U/ml of papain enzyme (Worthington Biochemical), L-cysteine 1 mM (Sigma), and 10 kU/ml DNase I (Worthington Biochemical) for an enzymatic dissociation. Papain activity was stopped by the addition of fetal calf serum (FCS) to the solution, and a single-cell suspension was then obtained by mechanical dissociation, which consisted in cells trituration in a DMEM (D7777, Sigma-Aldrich) medium (supplemented with 44 mm NaHCO3, and 10 ml/L antibiotic/antimycotic solution) containing 10% FCS. The cells were seeded at an average density of 6×10^4 cells/cm^2 in poly-D-lysine-coated 96, 12 or 6-well culture plates, depending on their use, and incubated at 37° C. in a humidified atmosphere containing 5% CO2/95% air. Culture medium was renewed twice per week. Cells were stimulated and harvested between DIV14 and DIV17, when confluence and cell growth were optimal.
Secretion of lactate in a high-throughput screening (HTS) fashion was measured indirectly through the acidification of extracellular medium. To this end, primary astrocytes grown in 96-well plates for 17 days were stimulated with the compounds as listed herein.
After washing the cells twice with stimulation medium (DMEM (D5030, Sigma), 3 mM NaHCO3 and 5 mM Glucose) at 37° C., cells were stimulated with the compounds at a final concentration of 10 uM (1% DMSO final) in 50 ul per well of stimulation medium supplemented with 10 uM of the extracellular pH sensor SNARF-5F %-(AND-6)-CAR (Life Technologies Corporation). Each compound was tested in two different plates for duplicates.
After 90 min stimulation, fluorescence was read at exc. (excitation) 480 nm/emm. (emission) 580 nm and at exc 480 nm/emm. 630 nm. The ratio of fluorescence between 630 nm and 580 emission values, which represents extracellular pH, was calculated.
In each plate, 8 wells were used for negative controls (DMSO) and 8 wells were used for positive controls (CCCP 2 uM in DMSO). Z prime values were calculated for each of the plates tested and values<0 were discarded.
The average and SD of compounds' values tested in duplicates were calculated, and compound was noted as HIT when the difference between compound's average and negative control's average was greater than three times the sum of compound's SD and negative controls' SD. Only scores greater than 40% were considered as lead Hits for the CDC54K library; for the remaining libraries, all hits were considered. Scores are calculated as the % of activity compared to the positive control in each plate (which is 100%).
Primary screening hits were cherry picked on new plates and confirmed for SNARF5 effect, after having discarded those compounds that are fluorescent (exc. 480 nm/emm. 580 nm or 630 nm) before stimulation. Extracellular medium was next analyzed for extracellular lactate quantification for secondary screening.
Identification of lactate-enhancing drugs with high throughput screening (HTS) experiments on astrocytes primary cultures using extracellular pH dye (SNARF5F 5-(and-6)-carboxylic acid) for 90 min. The procedure is described in Material and Methods (2. Cell culture, 2.1. HTS for lactate secretion and 2.2. Extracellular lactate quantification).
The procedure was performed as follows: • Primary screening: acidification of the extracellular medium • Primary screening confirmation: acidification of the extracellular medium, removal of compounds with fluorescent activity at exc. 480 nm/emm. 580 nm or 630 n. • Secondary screening: dosage of extracellular lactate

[2] = system: primary astrocytes; assay: Extracellular lactate quantification; type: cell-based, mouse; details: Appendix I, secondary screening: extracellular lactate
Procedure: Secretion of L-lactate was determined in the extracellular medium of 96-well plated astrocytes after 90 min stimulation (at 37° C., in 5% CO2/95% air conditions) with the drug of interest. The stimulation medium was composed of D5030 medium (completed with D-glucose 5 mM and 44 mM sodium bicarbonate) for 90 min in concentrations ranging from 0 to 100 μM.
Briefly, 200 μl of a Glycine (Sigma)-Semicarbazide (Acros) 0.2M pH 10 buffer containing 3 mM NAD (Roche) and LDH 14 U/ml (Roche) was added to each well of a 96-well plate containing 30 μl aliquots complemented with 20 μl fresh complete D5030 medium. Samples were incubated at 37° C. for 1 h. After samples cooled down at room temperature, the fluorescence intensity (340 nm excitation/450 nm emission) that represents the amount of NADH produced was measured, and lactate concentration values were determined from a standard curve of L-lactate.
Statistical analysis consisted in ANOVA followed by Fisher LSD post-hoc test for pair-wise comparisons.
Levels of lactate secreted by astrocytes were measured in the extracellular medium at 90 min after stimulation with hits (molecules) from the CDC54K library.

[3] = Appendix I, CDC54K primary screening, 10 uM, 90 min, relative to CCCP 2 uM

Row | Structure (SMILES) | Score_SNARF ([1]; Appendix I) | Score_LACTATE [2] | Score ([1]; Prestwick library, 10 uM, 90 min, activity relative to positive control CCCP 2 uM) | HTS Score (lactate) ([1]; Prestwick library, 10 uM, 90 min, relative to positive control CCCP 2 uM) | Score [1, 3]
1 | CCc1ccc(S(=O)(=O)N2CCSC2c2ccc(OC)c(OC)c2)cc1 (stereo not drawn) [4052-4304] | 0.4491 | 0.4335 | – | – | –
2 | Clc1ccc2c(c1)CCc1cccnc1C2=C1CCNCC1 [Desloratadine] | – | – | 0.06079 | 0.061 | –
3 | Cc1oc2ncnc(N3CCCC(C(=O)NCc4ccccn4)C3)c2c1C (stereo not drawn) [F228-0350] | 1.011 | 1.023 | – | – | –
4 | Cc1oc2ncnc(N3CCCC(C(=O)NCc4cccnc4)C3)c2c1C (stereo not drawn) [F228-0351] | 0.82 | 0.8985 | – | – | –
5 | Cc1oc2ncnc(N3CCCC(C(=O)NCc4ccccc4)C3)c2c1C (stereo not drawn) [F228-0365] | 0.9429 | 0.9001 | – | – | –
6 | CCNC(=O)C1CCCN(c2ncnc3oc(C)c(C)c23)C1 (stereo not drawn) [F228-0534] | 0.5203 | 0.3387 | – | – | –
7 | CNC(=O)C1CCCN(c2ncnc3oc(C)c(C)c23)C1 (stereo not drawn) [F228-0541] | 0.3609 | 0 | – | – | –
8 | Cc1nc(N2CCCC(C(=O)NCc3cccnc3)C2)c2c(C)c(C)oc2n1 (stereo not drawn) [F228-0856] | 0 | 0 | – | – | –
9 | COc1ccc(Cl)cc1S(=O)(=O)NCc1ccncc1 [F0376-0203] | 0 | 0 | – | – | –
10 | Cc1cccc([N+]2=C3SCCCN3C(O)(c3ccc(Cl)cc3)C2)c1.[Br-] (stereo not drawn) [F0522-0533] | 0.4705 | 0 | – | – | –
11 | COc1ccccc1[N+]1=C2CCCCN2C(O)(c2ccc(F)cc2)C1.[Br-] (stereo not drawn) [F0524-0338] | 0.634 | 1.585 | – | – | –
12 | OC1(c2ccccc2)C[N+](c2ccc(Cl)cc2)=C2CCCCN21.[Br-] (stereo not drawn) [F0524-0488] | 0.3489 | 0 | – | – | –
13 | COc1ccc(C2(O)C[N+](c3ccccc3C)=C3CCCCN32)cc1.[Br-] (stereo not drawn) [F0524-0507] | 0.4491 | 0 | – | – | –
14 | CCOc1ccc(C2(O)C[N+](c3ccccc3C)=C3CCCCN32)cc1.[Br-] (stereo not drawn) [F0524-0511] | 0.5555 | 0 | – | – | –
15 | COc1ccccc1[N+]1=C2CCCCCN2C(O)(c2ccc(F)cc2)C1.[Br-] (stereo not drawn) [F0524-0611] | 0.5954 | 1.547 | – | – | –
16 | COc1ccc(C2SCCN2S(=O)(=O)c2ccc(C)c(C)c2)cc1OC (stereo not drawn) [F1462-0491] | 0 | 0 | – | – | –
17 | COc1ccccc1Nc1nc(N2CCOCC2)c2ccccc2n1 [F3007-0009] | 0 | 0 | – | – | –
18 | CC(=O)N1CCCc2cc(S(=O)(=O)NCc3ccccc3)ccc21 [G855-0210] | 0.3123 | 0 | – | – | –
19 | COc1ccc(C2(O)C[N+](c3cc(C)ccc3C)=C3SCCCN32)c(F)c1 (stereo not drawn) [K404-0183] | 0 | 0 | – | – | –
20 | Cc1cccc([N+]2=C3SCCCN3C(O)(c3ccc(F)cc3)C2)c1 (stereo not drawn) [K404-0394] | 0.3309 | 0.4429 | – | – | –
21 | CCc1ccc(C2(O)C[N+](c3ccccc3OC)=C3CCCCN32)cc1 (stereo not drawn) [K404-0672] | 1.014 | 1.356 | – | – | –
22 | CCOc1ccc(C2(O)C[N+](c3ccccc3OC)=C3CCCCN32)cc1 (stereo not drawn) [K404-0673] | 0.9751 | 2.024 | – | – | –
23 | Cc1cccc([N+]2=C3CCCCN3C(O)(c3ccc(F)cc3)C2)c1C (stereo not drawn) [K404-0685] | 0.6562 | 0.6821 | – | – | –

Row | Structure (SMILES) | Score_SNARF ([1]; Appendix I) | Score_LACTATE [2] | Score ([1]; Prestwick library, 10 uM, 90 min, activity relative to positive control CCCP 2 uM) | HTS Score (lactate) ([1]; Prestwick library, 10 uM, 90 min, relative to positive control CCCP 2 uM) | Score [1, 3]
24 | Cc1ccc(C)c([N+]2=C3CCCCN3C(O)(c3ccc(F)cc3)C2)c1 (stereo not drawn) [K404-0697] | 0.5123 | 0.6526 | – | – | –
25 | COc1ccc(C2(O)C[N+](c3cccc(C)c3)=C3CCCCN32)cc1 (stereo not drawn) [K404-0796] | 0.6402 | 0 | – | – | –
26 | Cc1cccc([N+]2=C3CCCCN3C(O)(c3ccc(Cl)cc3)C2)c1 (stereo not drawn) [K404-0800] | 0.7386 | 0.8385 | – | – | –
27 | COc1ccccc1[N+]1=C2CCCCCN2C(O)(c2ccccc2)C1 (stereo not drawn) [K404-0838] | 0.8328 | 1.051 | – | – | –
28 | COc1ccccc1[N+]1=C2CCCCCN2C(O)(c2cccc([N+](=O)[O-])c2)C1 (stereo not drawn) [K404-0842] | 0.2022 | 0 | – | – | 0.169
29 | COc1ccc(OC)c([N+]2=C3CCCCCN3C(O)(c3ccc(C)cc3)C2)c1 (stereo not drawn) [K404-0855] | 0.4944 | 0.6277 | – | – | –
30 | CCOc1ccc(C2(O)C[N+](c3cc(OC)ccc3OC)=C3CCCCCN32)cc1 (stereo not drawn) [K404-0860] | 0.6137 | 0.4766 | – | – | –
31 | COc1ccc(C2(O)C[N+](c3ccccc3C)=C3CCCCCN32)cc1OC (stereo not drawn) [K404-0906] | 0 | 0 | – | – | –
32 | Cc1cccc([N+]2=C3CCCCCN3C(O)(c3ccc(F)cc3)C2)c1 (stereo not drawn) [K404-0910] | 0.5878 | 0.6219 | – | – | –
33 | Cc1cccc([N+]2=C3CCCCCN3C(O)(c3cccc([N+](=O)[O-])c3)C2)c1 (stereo not drawn) [K404-0915] | – | – | – | – | 0
34 | Cc1cccc(NS(=O)(=O)c2cc(-c3noc(C)n3)cs2)c1 [L287-0220] | 0.5829 | 1.578 | – | – | –
35 | O=S(=O)(NC1CCCC1)c1cc(-c2noc(C3CCC3)n2)cs1 [L287-1221] | 0.5995 | 0.6602 | – | – | –
36 | CC(=O)c1ccc(NS(=O)(=O)c2cc(-c3noc(C4CCCC4)n3)cs2)cc1 [L287-1577] | 1.059 | 1.215 | – | – | –
37 | Cc1ccc(CNS(=O)(=O)c2cc(-c3noc(C4CCCC4)n3)cs2)cc1 [L287-1641] | 0.626 | 0.8035 | – | – | –
38 | Cn1nccc1-c1csc(S(=O)(=O)Nc2ccc(F)cc2)c1 [L924-0760] | 0.7695 | 0.7898 | – | – | –
39 | COc1ccc(C)cc1NS(=O)(=O)c1cc(-c2ccnn2C)cs1 [L924-0830] | 0.7153 | 0.9168 | – | – | –
40 | Cc1cccc(NS(=O)(=O)c2cc(-c3ccnn3C)cs2)c1 [L924-0884] | 0.7507 | 0.7362 | – | – | –
41 | CCn1nccc1-c1csc(S(=O)(=O)Nc2cc(C)ccc2C)c1 [L924-0988] | 0.6652 | 0.6139 | – | – | –
42 | CCn1nccc1-c1csc(S(=O)(=O)Nc2ccccc2OC)c1 [L924-1088] | 0.8835 | 0.9106 | – | – | –
43 | O=C(c1noc2ccc(S(=O)(=O)Nc3cccc(F)c3)cc12)N1CCCC1 [L995-0058] | 0.4197 | 0.424 | – | – | –
44 | Cc1ccccc1NS(=O)(=O)c1ccc2onc(C(=O)N3CCCCC3)c2c1 [L995-0405] | 0.3724 | 0 | – | – | –
45 | O=C(c1ccco1)N1CCCn2nc(-c3ccc(C(F)(F)F)cc3)cc2C1 [T200-0370] | 0.3804 | 0.2896 | – | – | –
